Read-outs that look alike come from different tables or passages of the source.
Columns and labels:
HeLa cells = assay: HeLa cell 24 hr ploidy assay (DNA content); format: cell-based; details: Homo sapiens, HeLa, 4N ploidy, average, read-out: 24h_4NPloidy EC50_IP (uM Avg)
Method in brief: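 HeLa cells (1×10^4/well, MEM+10% FBS) cultured 24 h, treated with serially diluted compounds (0.25% DMSO final), then fixed, permeabilized and stained with Hoechst 33342 (0.5 ug/ml). Imaging quantified % 4N and >4N cells; EC50 IP and EC50 transit derived from dose curves.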

[1] = Solubility in DMSO (observation in the synthesis); format: physicochemical; details: DMSO at rt
Protocol: The reaction was cooled to rt. Hexane was added to induce the product to precipitate out of the reaction mixture. The resulting red solid was filtered with an aid of hexane. LCMS confirmed that the solid was the product. The product was purified by performing a column chromatography on silica gel using 60:40 CH2Cl2:(90:10:1 CH2Cl2:MeOH:NH4OH). Yellow solid was obtained. LCMS confirmed product. […] MS Calcd for […]: [M]=472. Found: [M+H]=473.

[2] = test system: HCT116 xenografts, a human colon carcinoma model; assay: HCT116 xenograft model, tumor growth inhibition; format: in vivo, athymic nude mice; details: mice, p.o.
Protocol: Compounds of the present invention were evaluated in HCT116 xenografts, a human colon carcinoma model. […] These cells were grown as subcutaneous xenografts in female HSD (Harlan Sprague Dawley) athymic nude mice. Mice were implanted subcutaneously with 2×10^6 cells in matrigel on day 0. Treatment was initiated on day 10 with compounds of the invention at the indicated dosage p.o for 2 consecutive-days per week (intermittent schedule, such as 2 days on—5 days off) or 7-days (continuous schedule) per week, for a selected number of weeks. For example, in one study, animals were dosed with selected compound samples BID on an intermittent dosing paradigm of two days on and then 5 days off per week, for four weeks (four dosing cycles) at 15, 7.5, and 3.75 mg/kg. Tumor growth inhibition and body weights were measured throughout the study and compared to the vehicle control group. All groups were provided nutritional supplements on a daily basis throughout the study to maintain body weight. Terminal neutrophil counts were taken at the end of this study. Measures were made by ANOVA followed by Scheffe post hoc test using StatView software v5.0.1.
10 Flasks containing a total of 7.68×10^8 HCT 116 tumor cells were harvested for tumor cell implantation. HCT 116 cells were re-suspended to a cell concentration of about 2×10^7 cells/ml in serum-free McCoys 5A media+50% matrigel. Cell viability was measured to be about 99.3%.
Female Athymic Nude mice approximately 14 weeks of age (Harlan Sprague Dawley) were used for the experiment. […] On Day 9, tumor-bearing mice were measured and randomized into five groups (n=10). […] During the dosing period, mouse tumor volumes were measured with a digital caliper and weighed twice per week. Tumor volumes were calculated as follows: Tumor Volume (mm^3)=[(W^2 X L)/2] where width (W) is defined as the smaller of the 2 measurements and length (L) is defined as the larger of the 2 measurements.

| Compound | EC50 (HeLa cells) [µM] | EC50 (HeLa cells; HeLa cells) [µM] | other results |
| --- | --- | --- | --- |
| COc1cnc2c(Nc3cnc(Nc4nnc(-c5ccccc5)c5ccccc45)nc3)ccnc2c1 [Example 36, N^5-(7-Methoxy-1,5-naphthyridin-4-yl)-N^2-(4-phenylphthalazin-1-yl)pyrimidine-2,5-diamine] | 0.326 |  | solubility in DMSO [1]: slightly soluble |
| COc1cnc2c(Oc3ccc(Nc4nnc(-c5ccc6c(c5)OCO6)c5ccccc45)cc3)ccnc2c1 [Example 165, 4-(1,3-benzodioxol-5-yl)-N-(4-((7-(methyloxy)-1,5-naphthyridin-4-yl)oxy)phenyl)-1-phthalazinamine] |  | 0.006 | inhibition of tumor growth ([2]; 2.5 mg/kg 2-day dosing scheduling BID): 63% |
| COc1cnc2c(Oc3ccc(Nc4nnc(-c5ccc(Cl)cc5)c5ccccc45)cc3)ccnc2c1 [Example 160, 4-(4-chlorophenyl)-N-(4-((7-(methyloxy)-1,5-naphthyridin-4-yl)oxy)phenyl)-1-phthalazinamine] | 0.005 |  | inhibition of tumor growth ([2]; 3.75 mg/kg 2-day dosing scheduling QD): 86% |
| COc1cnc2c(Sc3ccc(Nc4nnc(-c5ccccc5)c5ccccc45)cc3)ccnc2c1 [Example 207, N-(4-((7-(methyloxy)-1,5-naphthyridin-4-yl)thio)phenyl)-4-phenyl-1-phthalazinamine] |  | 0.005 | inhibition of tumor growth ([2]; 5.0 mg/kg 2-day dosing scheduling QD): 67% |
